Patent publication US20080207632A1, “PROTEIN KINASE INHIBITORS” (SUPERGEN, INC., priority 2006, published 2008)

Legend:
[1] = molecular target: T1, Axl kinase (Homo sapiens, UniProt P30530); experiment: Axl kinase inhibition assay (Kinase-Glo); format: biochemical; conditions: 3 μM ATP
T1 construct: purchased BPS Bioscience Inc, San Diego Calif
Method: One illustrative manner in which Axl kinase activity can be determined is by quantifying the phosphorylation of a known Axl substrate in an in vitro assay. In this assay kinase activity is determined by quantifying the amount of ATP remaining in solution following the kinase reaction by measuring the relative light units (RLU) produced by luciferase using a luminometer. Percent activity was determined for individual compounds by comparing luminometer readings of drug-treated reactions to controls containing no drug (RLUNO Inhib) and no […] enzyme (RLUNO Kinase) in the following equation: […]
In a 50 μl reaction, 200 ng/μl of Axl kinase (BPS Bioscience Inc, San Diego Calif.) was incubated at 30° C. for two hours with shaking (360 rpm) with 10 μg/ml Poly (Glu:Tyr) substrate (BPS Bioscience Inc, Calif.), 3 μM ATP. (Invitrogen, Carlsbad, Calif.) and kinase reaction buffer (40 mM MOPS, 75 mM MgCl2 and 0.1 mM EDTA). The value of 3 μM ATP was determined to be the Km (concentration at which the enzyme is working at 50% maximum velocity) for the amount of enzyme used in this assay. […] Kinase activity is determined by quantifying the amount of ATP remaining in solution following the kinase reaction by measuring the relative light units (RLU) produced by luciferase using a luminometer (Thermo Electron Corporation, Vantaa, Finland).

[2] = system: Aurora-2 kinase (Aurora-A) over Aurora-1 kinase (Aurora-B); experiment: SelectScreen kinase assay, specificity within the Aurora kinase family; format: biochemical; conditions: SelectScreen kinase assay system
Method: In order to determine the specificity of compound 2-3 within the Aurora kinase family, both Aurora-2 kinase (Aurora-A) and Aurora-1 kinase (Aurora-B) were examined for sensitivity to this molecule. These studies were performed using the SelectScreen kinase assay system (Invitrogen Corp.; Madison, Wis.) and gave rise to the results presented in FIG. 2.

[3] = system: A549 non-small cell lung carcinoma cells; experiment: cell cycle distribution by DNA content flow cytometry (Guava); format: cell-based; conditions: synchronized A549 cells, 24 hours post-release
Method: It is expected that a specific Aurora-2 kinase inhibitor would cause only brief cell cycle arrest at G2/M, which should be immediately followed by apoptosis. This is in contrast to Aurora-1 kinase inhibitors, which tend to cause a prolonged cell cycle arrest. compound 2-3 was examined for its ability to cause cell cycle arrest and apoptosis. Briefly, A549 non-small cell lung carcinoma cells were plated at 50000 cells/mL in a 24-well plate. Cells were synchronized with 4 μg/mL Aphidicolin for 16 hours, followed by a 24 hour synchronization with 1 μg/mL Hoechst 33342, to arrest the cells at the G2/M boundary. Cells were then released into regular medium with or without SGI-498 and allowed to grow for an additional 24 hours. This synchronization was necessary for visualization of the brief G2/M arrest caused by compound 2-3. Following this incubation, cells were stained for DNA content analysis using the Guava Cell Cycle Assay Kit (Guava Technologies, Hayward Calif.), according to manufacturer instructions. Cells were then analyzed with the Guava EasyCyte benchtop flow cytometer using the Guava Cell Cycle analysis protocol. Cells were gated according to DNA content into G0/G1, S, G2/M or apoptotic (sub-G1) categories.

[4] = system: Granta-22 lymphoma cell line; experiment: lymphoma cell number reduction, Granta-22; format: cell-based; conditions: 48 hours; read-out: IC50 Values Granta-22, single agent
Method: New IC50 values were calculated for the second agent in an effort to determine whether or not pretreatment with one compound would increase sensitivity to the other. As set forth in the table below, compound 2-3 pretreatment led to an increased sensitivity to Taxol®, however Taxol® pretreatment appeared to be […] to compound 2-3 in this assay.

T1 sequence (P30530 26-894): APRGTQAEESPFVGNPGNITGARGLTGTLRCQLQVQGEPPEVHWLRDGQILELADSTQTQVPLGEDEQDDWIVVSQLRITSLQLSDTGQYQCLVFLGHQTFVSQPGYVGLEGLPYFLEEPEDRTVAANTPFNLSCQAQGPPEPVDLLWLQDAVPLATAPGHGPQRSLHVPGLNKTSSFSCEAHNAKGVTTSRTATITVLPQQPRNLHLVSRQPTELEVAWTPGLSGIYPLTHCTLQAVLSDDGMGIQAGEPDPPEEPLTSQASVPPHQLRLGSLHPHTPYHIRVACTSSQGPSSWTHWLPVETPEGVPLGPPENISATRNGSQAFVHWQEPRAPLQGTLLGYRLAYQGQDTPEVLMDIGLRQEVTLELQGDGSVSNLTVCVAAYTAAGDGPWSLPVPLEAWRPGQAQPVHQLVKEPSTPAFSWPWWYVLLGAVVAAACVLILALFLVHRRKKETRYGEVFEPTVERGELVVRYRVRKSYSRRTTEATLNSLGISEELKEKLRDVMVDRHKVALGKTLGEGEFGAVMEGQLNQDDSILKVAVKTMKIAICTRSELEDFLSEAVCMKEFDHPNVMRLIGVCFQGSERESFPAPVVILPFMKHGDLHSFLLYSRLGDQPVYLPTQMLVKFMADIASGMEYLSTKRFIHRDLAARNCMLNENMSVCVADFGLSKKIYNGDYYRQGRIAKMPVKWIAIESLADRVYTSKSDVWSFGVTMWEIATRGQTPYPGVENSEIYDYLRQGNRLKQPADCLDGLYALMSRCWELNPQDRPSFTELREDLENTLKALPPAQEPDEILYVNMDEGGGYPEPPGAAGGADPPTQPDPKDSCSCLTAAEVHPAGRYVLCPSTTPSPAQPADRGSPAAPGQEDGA

Row | SMILES | IC50 [1] | selectivity for Aurora-2 kinase over Aurora-1 kinase [2] | cell cycle arrest and apoptosis [3] | IC50 [4]
1 | CC(=O)NS(=O)(=O)c1ccc(NC(=S)N2CCN(c3ncnc4[nH]c5cc(C(F)(F)F)c(Cl)cc5c34)CC2)cc1 [Compound 1-1, 4-(6-Chloro-7-trifluoromethyl-9H-pyrimido[4,5-b]indol-4-yl)-piperazine-1-carbothioic acid (4-acetylsulfamoyl-phenyl)-amide] | 9.8 µM | – | – | –
2 | COc1cc2[nH]c3ncnc(N4CCN(C(=S)Nc5ccc(S(=O)(=O)Nc6ccc(F)cc6)cc5)CC4)c3c2cc1OC [Compound 2-3, 4-(6,7-dimethoxy-9H-pyrimido[4,5-b]indol-4-yl)-N-(4-(N-(4-fluorophenyl)sulfamoyl)phenyl)piperazine-1-carbothioamide] | – | over 100 fold | Brief Cell Cycle Arrest in G2/M. Followed by Apoptosis | 6.67 µM
